# Measurements from patent US12187723B2 (BRISTOL-MYERS SQUIBB COMPANY, priority 2019, dated 2025).
# Assays:
# human TLR8 = target: T1, human TLR8 (Homo sapiens, UniProt Q9NR97); assay: TLR8 inhibition reporter assay (HEK-Blue SEAP); type: cell-based; conditions: HEK-Blue cells overexpressing human TLR8, R848 15.9 μM, 22 hour incubation
# T1 construct: host or cells: HEK-Blue cells
# T1 sequence (Q9NR97 27-1041): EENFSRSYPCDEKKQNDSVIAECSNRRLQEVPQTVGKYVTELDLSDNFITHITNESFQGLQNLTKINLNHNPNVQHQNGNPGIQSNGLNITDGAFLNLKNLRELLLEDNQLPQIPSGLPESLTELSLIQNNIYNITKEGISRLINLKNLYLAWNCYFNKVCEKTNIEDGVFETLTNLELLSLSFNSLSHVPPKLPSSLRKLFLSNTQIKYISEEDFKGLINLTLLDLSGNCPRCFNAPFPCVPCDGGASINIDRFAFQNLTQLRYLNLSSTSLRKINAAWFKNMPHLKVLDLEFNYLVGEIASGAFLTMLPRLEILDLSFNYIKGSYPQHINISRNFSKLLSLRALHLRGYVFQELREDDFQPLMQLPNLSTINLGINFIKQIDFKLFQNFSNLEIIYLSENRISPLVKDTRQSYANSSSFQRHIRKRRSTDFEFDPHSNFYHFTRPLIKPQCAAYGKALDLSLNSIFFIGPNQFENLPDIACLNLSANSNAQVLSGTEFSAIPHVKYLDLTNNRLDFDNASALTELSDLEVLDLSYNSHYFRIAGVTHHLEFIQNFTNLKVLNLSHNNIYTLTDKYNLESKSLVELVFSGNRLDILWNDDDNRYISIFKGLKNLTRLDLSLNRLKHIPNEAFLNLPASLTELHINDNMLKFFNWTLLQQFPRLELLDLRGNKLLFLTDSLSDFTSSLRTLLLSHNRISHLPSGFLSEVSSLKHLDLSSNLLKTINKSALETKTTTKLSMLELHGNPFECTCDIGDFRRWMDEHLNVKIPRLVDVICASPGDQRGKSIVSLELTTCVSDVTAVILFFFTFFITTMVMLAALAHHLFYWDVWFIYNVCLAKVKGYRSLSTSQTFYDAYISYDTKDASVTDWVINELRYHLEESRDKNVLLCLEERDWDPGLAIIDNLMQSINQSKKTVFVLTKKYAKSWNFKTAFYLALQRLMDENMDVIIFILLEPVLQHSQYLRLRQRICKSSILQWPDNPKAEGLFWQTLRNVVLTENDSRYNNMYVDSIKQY
# Summary of the method: (§1)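 Agonists used: gardiquimod 7.5 μM (TLR7), R848 15.9 μM (TLR8), ODN2006 5 nM (TLR9), added after 30 min room-temperature compound pre-treatment (0.05 nM–50 μM) of receptor-overexpressing HEK-Blue cells. SEAP reporter (NF-κB/AP-1 driven) read after 22 h at 37 °C; inhibition scaled between agonist+DMSO and reference-inhibitor wells.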
# human TLR9 = target: T2, human TLR9 (Homo sapiens, UniProt Q9NR96); assay: TLR9 inhibition reporter assay (HEK-Blue SEAP); type: cell-based; conditions: HEK-Blue cells overexpressing human TLR9, ODN2006 5 nM, 22 hour incubation
# T2 construct: host or cells: HEK-Blue cells
# T2 sequence (Q9NR96 26-1032): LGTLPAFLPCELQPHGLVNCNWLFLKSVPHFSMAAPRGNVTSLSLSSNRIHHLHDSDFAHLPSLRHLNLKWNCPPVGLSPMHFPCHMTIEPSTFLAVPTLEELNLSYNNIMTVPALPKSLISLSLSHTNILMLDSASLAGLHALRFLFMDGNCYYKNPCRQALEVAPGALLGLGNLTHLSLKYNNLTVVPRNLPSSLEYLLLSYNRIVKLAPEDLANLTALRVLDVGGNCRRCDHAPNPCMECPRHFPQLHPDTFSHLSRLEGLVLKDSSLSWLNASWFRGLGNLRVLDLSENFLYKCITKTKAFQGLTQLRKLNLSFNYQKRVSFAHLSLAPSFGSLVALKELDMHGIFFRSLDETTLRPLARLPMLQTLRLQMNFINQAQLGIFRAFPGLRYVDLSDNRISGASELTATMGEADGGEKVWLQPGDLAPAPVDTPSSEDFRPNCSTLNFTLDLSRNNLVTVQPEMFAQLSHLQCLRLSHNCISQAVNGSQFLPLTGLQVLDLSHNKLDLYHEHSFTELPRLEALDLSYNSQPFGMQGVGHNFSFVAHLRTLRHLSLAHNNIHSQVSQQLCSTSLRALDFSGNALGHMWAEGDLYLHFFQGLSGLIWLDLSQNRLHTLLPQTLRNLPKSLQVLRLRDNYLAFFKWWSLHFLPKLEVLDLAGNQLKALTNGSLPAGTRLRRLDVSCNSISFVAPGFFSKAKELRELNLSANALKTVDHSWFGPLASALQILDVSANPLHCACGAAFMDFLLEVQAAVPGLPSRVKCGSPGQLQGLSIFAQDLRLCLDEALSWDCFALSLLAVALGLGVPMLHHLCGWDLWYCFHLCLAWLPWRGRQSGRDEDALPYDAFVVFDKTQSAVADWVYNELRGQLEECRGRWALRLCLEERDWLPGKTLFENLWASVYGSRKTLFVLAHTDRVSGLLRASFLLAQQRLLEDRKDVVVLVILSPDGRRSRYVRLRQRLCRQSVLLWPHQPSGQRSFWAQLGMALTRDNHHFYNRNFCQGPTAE
# Summary of the method: as §1
SMILES,IC50 (human TLR8),IC50 (human TLR9)
"COc1cc(-c2cc3[nH]c(=O)n(C4CCC(N5CC6(C5)CS(=O)(=O)C6)CC4)c3cc2C(C)C)cn2ncnc12 (single isomer, unassigned) [Example 245, 1-(4-(2,2-dioxido-2-thia-6-azaspiro[3.3]heptan-6-yl)cyclohexyl)-6-isopropyl-5-(8-methoxy-[1,2,4]triazolo[1,5-a]pyridin-6-yl)-1,3-dihydro-2H-benzo[d]imidazol-2-one]",11.7 nM,17300 nM
"COc1cc(-c2cc3[nH]c(=O)n(C4CCC(N5CCC(F)(F)CC5)CC4)c3cc2C(C)C)cn2ncnc12 (single isomer, unassigned) [Example 246, 1-(4-(4,4-difluoropiperidin-1-yl)cyclohexyl)-6-isopropyl-5-(8-methoxy-[1,2,4]triazolo[1,5-a]pyridin-6-yl)-1,3-dihydro-2H-benzo[d]imidazol-2-one]",0.16 nM,15500 nM
"COc1cc(-c2cc3[nH]c(=O)n(C4CCC(N5CCC(F)(F)CC5)CC4)c3cc2C(C)C)cn2ncnc12 (single isomer, unassigned) [Example 247, 1-(4-(4,4-difluoropiperidin-1-yl)cyclohexyl)-6-isopropyl-5-(8-methoxy-[1,2,4]triazolo[1,5-a]pyridin-6-yl)-1,3-dihydro-2H-benzo[d]imidazol-2-one]",0.7 nM,14900 nM
"COc1cc(-c2cc3[nH]c(=O)n(C4CCC(N(C)CCC(F)(F)F)CC4)c3cc2C(C)C)cn2ncnc12 (single isomer, unassigned) [Example 248, 6-isopropyl-5-(8-methoxy-[1,2,4]triazolo[1,5-a]pyridin-6-yl)-1-(4-(methyl(3,3,3-trifluoropropyl)amino)cyclohexyl)-1,3-dihydro-2H-benzo[d]imidazol-2-one]",0.17 nM,9770 nM
"COc1cc(-c2cc3[nH]c(=O)n(C4CCC(N(C)CCC(F)(F)F)CC4)c3cc2C(C)C)cn2ncnc12 (single isomer, unassigned) [Example 249, 6-isopropyl-5-(8-methoxy-[1,2,4]triazolo[1,5-a]pyridin-6-yl)-1-(4-(methyl(3,3,3-trifluoropropyl)amino)cyclohexyl)-1,3-dihydro-2H-benzo[d]imidazol-2-one]",0.08 nM,2000 nM
"COc1cc(-c2cc3[nH]c(=O)n(C4CCC(N5C6CCC5COC6)CC4)c3cc2C(C)C)cn2ncnc12 (single isomer, unassigned) [Example 252, 1-(4-(3-oxa-8-azabicyclo[3.2.1]octan-8-yl)cyclohexyl)-6-isopropyl-5-(8-methoxy-[1,2,4]triazolo[1,5-a]pyridin-6-yl)-1,3-dihydro-2H-benzo[d]imidazol-2-one]",24.8 nM,> 50000 nM
"COc1cc(-c2cc3[nH]c(=O)n(C4CCC(N5C6CCC5COC6)CC4)c3cc2C(C)C)cn2ncnc12 (single isomer, unassigned) [Example 253, 1-(4-(3-oxa-8-azabicyclo[3.2.1]octan-8-yl)cyclohexyl)-6-isopropyl-5-(8-methoxy-[1,2,4]triazolo[1,5-a]pyridin-6-yl)-1,3-dihydro-2H-benzo[d]imidazol-2-one]",4.33 nM,11100 nM

# More lines, now with the values ahead:
IC50 (human TLR8),IC50 (human TLR9),SMILES
1.85 nM,40500 nM,"COc1c(C)c(-c2cc3[nH]c(=O)n(C4CCC(NCC5(S(C)(=O)=O)CC5)CC4)c3cc2C(C)C)cn2ncnc12 (single isomer, unassigned) [Example 259]"
0.38 nM,6360 nM,"COc1c(C)c(-c2cc3[nH]c(=O)n(C4CCC(NCC5(S(C)(=O)=O)CC5)CC4)c3cc2C(C)C)cn2ncnc12 (single isomer, unassigned) [Example 260]"
2.23 nM,18700 nM,"COc1c(C)c(-c2cc3[nH]c(=O)n(C4CCC(N5CCCOCC5)CC4)c3cc2C(C)C)cn2ncnc12 (single isomer, unassigned) [Example 261, 1-(4-(1,4-oxazepan-4-yl)cyclohexyl)-6-isopropyl-5-(8-methoxy-7-methyl-[1,2,4]triazolo[1,5-a]pyridin-6-yl)-1,3-dihydro-2H-benzo[d]imidazol-2-one]"
0.68 nM,15500 nM,"COc1c(C)c(-c2cc3[nH]c(=O)n(C4CCC(N5CCCOCC5)CC4)c3cc2C(C)C)cn2ncnc12 (single isomer, unassigned) [Example 262, 1-(4-(1,4-oxazepan-4-yl)cyclohexyl)-6-isopropyl-5-(8-methoxy-7-methyl-[1,2,4]triazolo[1,5-a]pyridin-6-yl)-1,3-dihydro-2H-benzo[d]imidazol-2-one]"
2.91 nM,19700 nM,"COc1c(C)c(-c2cc3[nH]c(=O)n(C4CCC(N5CC(F)C5)CC4)c3cc2C(C)C)cn2ncnc12 (single isomer, unassigned) [Example 263, 1-(4-(3-fluoroazetidin-1-yl)cyclohexyl)-6-isopropyl-5-(8-methoxy-7-methyl-[1,2,4]triazolo[1,5-a]pyridin-6-yl)-1,3-dihydro-2H-benzo[d]imidazol-2-one]"
5.93 nM,17500 nM,"COc1c(C)c(-c2cc3[nH]c(=O)n(C4CCC(N5CC(F)C5)CC4)c3cc2C(C)C)cn2ncnc12 (single isomer, unassigned) [Example 264, 1-(4-(3-fluoroazetidin-1-yl)cyclohexyl)-6-isopropyl-5-(8-methoxy-7-methyl-[1,2,4]triazolo[1,5-a]pyridin-6-yl)-1,3-dihydro-2H-benzo[d]imidazol-2-one]"
0.12 nM,> 50000 nM,"COc1c(C)c(-c2cc3[nH]c(=O)n(C4CCC(N5CCC6(CC5)COC6)CC4)c3cc2C(C)C)cn2ncnc12 (single isomer, unassigned) [Example 267, 1-(4-(2-oxa-7-azaspiro[3.5]nonan-7-yl)cyclohexyl)-6-isopropyl-5-(8-methoxy-7-methyl-[1,2,4]triazolo[1,5-a]pyridin-6-yl)-1,3-dihydro-2H-benzo[d]imidazol-2-one]"
1.08 nM,17400 nM,"COc1c(C)c(-c2cc3[nH]c(=O)n(C4CCC(N5CCC6(CC5)COC6)CC4)c3cc2C(C)C)cn2ncnc12 (single isomer, unassigned) [Example 268, 1-(4-(2-oxa-7-azaspiro[3.5]nonan-7-yl)cyclohexyl)-6-isopropyl-5-(8-methoxy-7-methyl-[1,2,4]triazolo[1,5-a]pyridin-6-yl)-1,3-dihydro-2H-benzo[d]imidazol-2-one]"
1.58 nM,25600 nM,"COc1c(C)c(-c2cc3[nH]c(=O)n(C4CCC(N5CC6(COC6)C5)CC4)c3cc2C(C)C)cn2ncnc12 (single isomer, unassigned) [Example 269, 1-(4-(2-oxa-6-azaspiro[3.3]heptan-6-yl)cyclohexyl)-6-isopropyl-5-(8-methoxy-7-methyl-[1,2,4]triazolo[1,5-a]pyridin-6-yl)-1,3-dihydro-2H-benzo[d]imidazol-2-one]"
